This passage reports IC50 results from patent US20250346606A1, “CAMPTOTHECIN COMPOUND, PREPARATION METHOD THEREFOR, AND APPLICATION THEREOF” (SICHUAN KELUN-BIOTECH BIOPHARMACEUTICAL CO., LTD., priority 2021, published 2025).

One test deals with HT29 cells. Description: Inhibitory effect of compounds on HT29 cell proliferation. The format is cell-based, Human. The following applies: read-out: IC50, inhibitory activity on HT29 cell proliferation. On the procedure: (1) Cell plating: First, tumor cells HT29 were cultured in corresponding medium, then digested with trypsin, centrifuged, resuspended, and counted, and the cells were adjusted to an appropriate concentration for plating.
(§1) Co-incubation of the compound of the present disclosure and tumor cells: after the cells adhered to the wall, the medium was removed, and the diluted bioactive molecule (the compound of the present disclosure) was added to the wells of the above plate, and incubated for 72 h.
(§2) In vitro cell viability detection: After the incubation, 50 μL of Cell Counting-Lite™ 2.0 reagent (Vazyme/Novazyme) was added to each well, shaken and mixed well in the dark, reacted for 10 minutes, and then the detection was carried out with a microplate reader (manufacturer: BMG, Model: PHERAStar-FS) for reading. The background RLU was obtained by using cell-free medium (with Cell Counting-Lite™), and the vehicle RLU was obtained by using cell-containing medium (with Cell Counting-Lite™). Cell inhibition rate=1−(sample RLU−background RLU)/(solvent RLU−background RLU)×100%. According to the four-parameter model fitting curve, the half maximal inhibitory concentration (IC50) of the compound was calculated, and the detection results were shown in Table 2.

The subject of a further test is NCI-N87 cells. Description: Inhibitory effect of compounds on NCI-N87 cell proliferation. It is filed as cell-based, Human. The method, then: (1) Cell plating: First, tumor cells NCI-N87 were cultured in corresponding medium, then digested with trypsin, centrifuged, resuspended, and counted, and the cells were adjusted to an appropriate concentration for plating.
as §1
as §2, with “Table 12.” for “Table 2.”

A further test deals with NCI-H358 cells. Description: Inhibitory effect of compounds on NCI-H358 cell proliferation. It is filed as cell-based, Human. The method, then: (1) Cell plating: First, tumor cells NCI-H358 were cultured in corresponding medium, then digested with trypsin, centrifuged, resuspended, and counted, and the cells were adjusted to an appropriate concentration for plating.
as §1
as §2, with “Table 10.” for “Table 2.”

In a further test the test system is HCC1806 cells. Description: Inhibitory effect of compounds on HCC1806 cell proliferation. It is filed as cell-based, Human. On the procedure: (1) Cell plating: First, tumor cells HCC1806 were cultured in corresponding medium, then digested with trypsin, centrifuged, resuspended, and counted, and the cells were adjusted to an appropriate concentration for plating.
as §1
as §2, with “Table 6.” for “Table 2.”

Another test deals with MDA-MB-453 cells. Description: Inhibitory effect of compounds on MDA-MB-453 cell proliferation. Conditions: MDA-MB-453 human breast cancer cells, 72 h incubation, Cell Counting-Lite 2.0. The format is cell-based. The method, then:
(1) Cell plating: First, tumor cells MDA-MB-453 were cultured in corresponding medium, then digested with trypsin, centrifuged, resuspended, and counted, and the cells were adjusted to an appropriate concentration for plating.
as §1
as §2, with “Table 22.” for “Table 2.”

Where [1] appears, read: Homo sapiens, NCI-N87, 72 h, read-out: IC50, inhibitory activity on NCI-N87 cell proliferation, NCI-N87 human gastric cancer cells, 72 h incubation, Cell Counting-Lite 2.0.
[2] abbreviates: Homo sapiens, NCI-H358, 72 h, read-out: IC50, inhibitory activity on NCI-H358 cell proliferation, NCI-H358 human non-small cell lung cancer cells, 72 h incubation, Cell Counting-Lite 2.0.
[3] abbreviates: read-out: IC50, inhibitory activity on HCC1806 cell proliferation, HCC1806 human breast squamous carcinoma cells, 72 h incubation, Cell Counting-Lite 2.0.
Setting [4] is: read-out: IC50, inhibitory activity on NCI-N87 cell proliferation, NCI-N87 human gastric cancer cells, 72 h incubation, Cell Counting-Lite 2.0.
Setting [5] is: read-out: IC50, inhibitory activity on NCI-H358 cell proliferation, NCI-H358 human non-small cell lung cancer cells, 72 h incubation, Cell Counting-Lite 2.0.

Like-named read-outs stand apart in the source and are kept apart here.

With `CC[C@@]1(O)C(=O)OCc2c1cc1n(c2=O)Cc2c-1nc1cc(F)c(Cl)c3c1c2[C@@H](N)CC3` (single isomer, unassigned) [Example 8 (3-1-A)], the IC50 was 0.16 nM in the test with HT29 cells (Homo sapiens, HT-29, 72 h) and 0.37 nM in the test on NCI-N87 cells (setting [1]).

Turning to `CC[C@@]1(O)C(=O)OCc2c1cc1n(c2=O)Cc2c-1nc1cc(F)c(Cl)c3c1c2[C@H](N)CC3` (single isomer, unassigned) [Example 8 (3-1-B)], the IC50 in the test with HT29 cells (Homo sapiens, HT-29, 72 h) was determined as 0.71 nM; with NCI-N87 cells (setting [1]), 1.34 nM.

For the molecule `CC[C@@]1(O)C(=O)OCc2c1cc1n(c2=O)Cc2c-1nc1cc(F)c(C)c3c1c2[C@@](C)(NC(=O)C1(O)CC1)CC3` (single isomer, unassigned) [Example 14 (5-16-A)], in the test with HT29 cells (Homo sapiens, HT-29, 72 h), the IC50 was 3.87 nM.

`CC[C@@]1(O)C(=O)OCc2c1cc1n(c2=O)Cc2c-1nc1cc(F)c(Cl)c3c1c2C(NC(=O)C(O)C1CC1)CC3` (single isomer, unassigned) [Example 16 (3-12-A)]: the IC50 was 15.4 nM in the test with NCI-H358 cells (setting [2]), 0.16 nM with HCC1806 cells (setting [3]), 0.47 nM in the test on MDA-MB-453 cells and 0.44 nM with NCI-N87 cells (setting [4]).

On to `CC[C@@]1(O)C(=O)OCc2c1cc1n(c2=O)Cc2c-1nc1cc(F)c(Cl)c3c1c2C(NC(=O)C(O)C1CC1)CC3` (single isomer, unassigned) [Example 16 (3-12-B)], for which the IC50 was found to be 19.8 nM with NCI-H358 cells (setting [5]), 1.76 nM with HCC1806 cells (setting [3]), 4.32 nM in the test with MDA-MB-453 cells and 3.45 nM with NCI-N87 cells (setting [4]).

For `CC[C@@]1(O)C(=O)OCc2c1cc1n(c2=O)Cc2c-1nc1cc(F)c(Cl)c3c1c2C(NC(=O)C(O)C1CC1)CC3` (single isomer, unassigned) [Example 16 (3-12-C)], the IC50 came out at 28.3 nM in the test with NCI-H358 cells (setting [5]), 1.91 nM in the test with HCC1806 cells (setting [3]), 5.52 nM with MDA-MB-453 cells and 3.99 nM in the test on NCI-N87 cells (setting [4]).

As for `CC[C@@]1(O)C(=O)OCc2c1cc1n(c2=O)Cc2c-1nc1cc(F)c(Cl)c3c1c2C(NC(=O)C(O)C1CC1)CC3` (single isomer, unassigned) [Example 16 (3-12-D)], the IC50 in the test with NCI-H358 cells (setting [5]) was 20.8 nM; with HCC1806 cells (setting [3]), 1.53 nM; in the test on MDA-MB-453 cells, 3.98 nM; with NCI-N87 cells (setting [4]), 3.03 nM.

As for `CC[C@@]1(O)C(=O)OCc2c1cc1n(c2=O)Cc2c-1nc1cc(F)c(Cl)c3c1c2[C@@H](NC[C@H](C)O)CC3` (single isomer, unassigned) [Example 17 (3-7-A)], the IC50 turned out to be 49.4 nM with NCI-H358 cells (setting [2]); 6.23 nM with MDA-MB-453 cells (Homo sapiens, MDA-MB-453, 72 h); 5.32 nM with NCI-N87 cells (setting [1]).

Take `CC[C@@]1(O)C(=O)OCc2c1cc1n(c2=O)Cc2c-1nc1cc(F)c(Cl)c3c1c2[C@H](NC[C@@H](C)O)CC3` (single isomer, unassigned) [Example 25 (3-26-B)]: the IC50 is 4.93 nM with HCC1806 cells (Homo sapiens, HCC1806, 72 h, read-out: IC50, inhibitory activity on HCC1806 cell proliferation, HCC1806 human breast squamous carcinoma cells, 72 h incubation, Cell Counting-Lite 2.0) and 25.3 nM in the test with NCI-N87 cells (setting [1]).

Turning to `CC[C@@]1(O)C(=O)OCc2c1cc1n(c2=O)Cc2c-1nc1cc(Cl)c(C)c3c1c2[C@H](NC(=O)CO)CC3` [Example 3 (2-2-B), N-((1R,9S)-5-chloro-9-ethyl-9-hydroxy-4-methyl-10,13-dioxo-2,3,9,10,13,15-hexahydro-1H,12H-benzo[de]pyrano[3′,4′:6,7]indolizino[1,2-b]quinolin-1-yl)-2-hydroxyacetamide], the IC50 in the test with HT29 cells (Homo sapiens, HT-29, 72 h) is 7.52 nM.

For the molecule `CC[C@@]1(O)C(=O)OCc2c1cc1n(c2=O)Cc2c-1nc1cc(Cl)c(C)c3c1c2[C@H](NC(=O)[C@H](O)C1CC1)CC3` [Example 5 (2-12-D), (2R)—N-((1R,9S)-5-chloro-9-ethyl-9-hydroxy-4-methyl-10,13-dioxo-2,3,9,10,13,15-hexahydro-1H,12H-benzo[de]pyrano[3′,4′:6,7]indolizino[1,2-b]quinolin-1-yl)-2-cyclopropyl-2-hydroxyacetamide], in the test with HT29 cells (Homo sapiens, HT-29, 72 h), the IC50 came out at 3.29 nM.

Take `CC[C@@]1(O)C(=O)OCc2c1cc1n(c2=O)Cc2c-1nc1cc(Cl)c(C)c3c1c2[C@@H](NCC(C)(C)O)CC3` [Example 6 (2-17-A), N-((1S,9S)-5-chloro-9-ethyl-9-hydroxy-4-methyl-10,13-dioxo-2,3,9,10,13,15-hexahydro-1H,12H-benzo[de]pyrano[3′,4′:6,7]indolizino[1,2-b]quinolin-1-yl)-2-hydroxy-2-methylpropylamine]: the IC50 in the test with HT29 cells (Homo sapiens, HT-29, 72 h) was determined as 1.24 nM.

Consider `CC[C@@]1(O)C(=O)OCc2c1cc1n(c2=O)Cc2c-1nc1cc(Cl)c(C)c3c1c2[C@H](NCC(C)(C)O)CC3` [Example 6 (2-17-B), N-((1R,9S)-5-chloro-9-ethyl-9-hydroxy-4-methyl-10,13-dioxo-2,3,9,10,13,15-hexahydro-1H, 12H-benzo[de]pyrano[3′,4′:6,7]indolizino[1,2-b]quinolin-1-yl)-2-hydroxy-2-methylpropylamine], for which the IC50 with HT29 cells (Homo sapiens, HT-29, 72 h) stood at 1.59 nM.

On to `CC[C@@]1(O)C(=O)OCc2c1cc1n(c2=O)Cc2c-1nc1cc(F)c(C)cc1c2CCN(C(=O)CO)C(C)C` [Example 10 (4-12), (S)—N-(2-(4-ethyl-8-fluoro-4-hydroxy-9-methyl-3,14-dioxo-3,4,12,14-tetrahydro-1H-pyrano[3′,4′:6,7]indolizino[1,2-b]quinolin-11-yl)ethyl)-2-hydroxy-N-isopropylacetamide], for which the IC50 with HT29 cells (HT-29, HT29 human colon cancer cells, 72 h incubation, Cell Counting-Lite 2.0) was 4.79 nM.

As to `CC[C@@]1(O)C(=O)OCc2c1cc1n(c2=O)Cc2c-1nc1cc(Cl)c(C)c3c1c2[C@H](NC[C@@H](C)O)CC3` [Example 24 (2-27-B), (2R)—N-((1R,9S)-5-chloro-9-ethyl-9-hydroxy-4-methyl-10,13-dioxo-2,3,9,10,13,15-hexahydro-1H,12H-benzo[de]pyrano[3′,4:6,7]indolizino[1,2-b]quinolin-1-yl)-2-hydroxypropylamine], the IC50 in the test on NCI-H358 cells (NCI-H358 human non-small cell lung cancer cells, 72 h incubation, Cell Counting-Lite 2.0, read-out: IC50, inhibitory activity on NCI-H358 cell proliferation) came to 69.1 nM; in the test with HCC1806 cells (HCC1806 human breast squamous carcinoma cells, 72 h incubation, Cell Counting-Lite 2.0, read-out: IC50, inhibitory activity on HCC1806 cell proliferation), 3.93 nM; with NCI-N87 cells (NCI-N87 human gastric cancer cells, 72 h incubation, Cell Counting-Lite 2.0, read-out: IC50, inhibitory activity on NCI-N87 cell proliferation), 14.7 nM.
